The source of these data is patent US20040033210A1, “Enhancement of antibody-cytokine fusion protein mediated immune responses by co-administration with prostaglandin inhibitor” (EMD Lexigen Research Center Corp., priority 1998, published 2004).

In the test the test system is LLC-EpCAM subcutaneous tumors. Briefly: Combination therapy of LLC-Ep subcutaneous tumors in C57BL/6 mice with indomethacin (Example 5), tumor volume. It counts as in vivo. The following applies: after treatment for 22 days; fusion protein 25 μg/mouse i.v., 5 daily injections; indomethacin 20 μg/mL in drinking water throughout. As to the method:
FIG. 5 is a line graph depicting the effect on subcutaneous tumors of an antibody-cytokine fusion protein administered either alone or in combination with indomethacin. The size of LLC-EpCAM subcutaneous tumors were monitored in mice treated with phosphate buffered saline (closed diamonds), a huKS-huγ1-huIL2 fusion protein (closed squares), indomethocin (closed triangles), and a combination of the huKS-huγ1-huIL2 fusion protein and indomethocin (crosses).
Female C57lB6 mice were injected subcutaneously in the mid-back with LLC-Ep cells (5×10^5 per mouse) grown in cell culture. After about two weeks, animals with palpable tumors in the range of 150-400 mm^3 were divided into four groups, with an equal distribution of tumor sizes between the groups. […] Tumor growth was monitored by volumetric measurements until animals in the control group became moribund and were euthanized. Tumor volumes were measured with calipers and calculated as V=4 π/3 (0.5L×0.5W×0.5H), where L is the length, W is the width, and H is the height of the tumor. […]
When the tumors reached 100-200 mm^3 in size (about 7 to 14 days), the mice were randomized into four groups, 5 mice per group. […] Tumor volumes were measured as described in Example 3. […]

As to `COc1ccc2c(c1)c(CC(=O)O)c(C)n2C(=O)c1ccc(Cl)cc1` [indomethacin], the T/C ratio is reported as 0.60.
